Assay results taken from patent US20250145635A1, “COMPOUND CONTAINING BIS(AZANYLYLIDENE) SULFONYL STRUCTURE AND USE THEREOF IN MEDICINE” (SCINNOHUB PHARMACEUTICAL CO., LTD., priority 2021, published 2025).

Tests used:
[1] = molecular target: recombinant human PKR enzyme (Homo sapiens (Human), UniProt P30613); test: Pyruvate kinase (PKR) activity experiment; type: biochemical; details: activation of recombinant human PKR enzyme
Protocol: • 1). A recombinant human PKR enzyme solution was formulated at a concentration of 60 ng/well (a 20 μL reaction system), and 5 μL of the solution was added into each well of a black transparent bottom 384-well plate. • 2). Compound solutions were formulated at different concentrations, with the final concentrations of 1000/300/100 nM (containing 1% DMSO). Each 5 μL of the compound solution was added into the plate in item 3.1 and mixed well. The plate was incubated at room temperature for 10 min. • 3). A reaction system was formulated according to the instructions of a kit (as shown in the table below), and 10 μL of the reaction system was added into each well of the 384-well plate, and mixed uniformly with the solution in item 3.2.
• 4). The 384-well plate was placed on a microplate reader to detect the fluorescence value at 540/590 nm, where the value was read every 2 minutes and the detection was conducted continuously for 1 hour. • 5). The Slope value within the detection time was calculated, and the 0.1% DMSO well was used as a control well to calculate a compound activation rate.
[formula] • 6). Fitting dose-effect curve
(§1) With the log value of the compound concentration as the X axis and the percentage activation rate as the Y axis, a dose-effect curve was fitted with the log(agonist) vs. response-variable slope of the analysis software GraphPad Prism 5, and the AC50 value of the activity of each compound against PKR was obtained.

[2] = molecular target: USP9X (Homo sapiens (Human), UniProt Q93008); test: USP9X enzyme activity experiment; type: biochemical; details: inhibition of USP9X enzyme, Ub-Rho 110 substrate
Sequence of USP9X (Q93008 whole entry): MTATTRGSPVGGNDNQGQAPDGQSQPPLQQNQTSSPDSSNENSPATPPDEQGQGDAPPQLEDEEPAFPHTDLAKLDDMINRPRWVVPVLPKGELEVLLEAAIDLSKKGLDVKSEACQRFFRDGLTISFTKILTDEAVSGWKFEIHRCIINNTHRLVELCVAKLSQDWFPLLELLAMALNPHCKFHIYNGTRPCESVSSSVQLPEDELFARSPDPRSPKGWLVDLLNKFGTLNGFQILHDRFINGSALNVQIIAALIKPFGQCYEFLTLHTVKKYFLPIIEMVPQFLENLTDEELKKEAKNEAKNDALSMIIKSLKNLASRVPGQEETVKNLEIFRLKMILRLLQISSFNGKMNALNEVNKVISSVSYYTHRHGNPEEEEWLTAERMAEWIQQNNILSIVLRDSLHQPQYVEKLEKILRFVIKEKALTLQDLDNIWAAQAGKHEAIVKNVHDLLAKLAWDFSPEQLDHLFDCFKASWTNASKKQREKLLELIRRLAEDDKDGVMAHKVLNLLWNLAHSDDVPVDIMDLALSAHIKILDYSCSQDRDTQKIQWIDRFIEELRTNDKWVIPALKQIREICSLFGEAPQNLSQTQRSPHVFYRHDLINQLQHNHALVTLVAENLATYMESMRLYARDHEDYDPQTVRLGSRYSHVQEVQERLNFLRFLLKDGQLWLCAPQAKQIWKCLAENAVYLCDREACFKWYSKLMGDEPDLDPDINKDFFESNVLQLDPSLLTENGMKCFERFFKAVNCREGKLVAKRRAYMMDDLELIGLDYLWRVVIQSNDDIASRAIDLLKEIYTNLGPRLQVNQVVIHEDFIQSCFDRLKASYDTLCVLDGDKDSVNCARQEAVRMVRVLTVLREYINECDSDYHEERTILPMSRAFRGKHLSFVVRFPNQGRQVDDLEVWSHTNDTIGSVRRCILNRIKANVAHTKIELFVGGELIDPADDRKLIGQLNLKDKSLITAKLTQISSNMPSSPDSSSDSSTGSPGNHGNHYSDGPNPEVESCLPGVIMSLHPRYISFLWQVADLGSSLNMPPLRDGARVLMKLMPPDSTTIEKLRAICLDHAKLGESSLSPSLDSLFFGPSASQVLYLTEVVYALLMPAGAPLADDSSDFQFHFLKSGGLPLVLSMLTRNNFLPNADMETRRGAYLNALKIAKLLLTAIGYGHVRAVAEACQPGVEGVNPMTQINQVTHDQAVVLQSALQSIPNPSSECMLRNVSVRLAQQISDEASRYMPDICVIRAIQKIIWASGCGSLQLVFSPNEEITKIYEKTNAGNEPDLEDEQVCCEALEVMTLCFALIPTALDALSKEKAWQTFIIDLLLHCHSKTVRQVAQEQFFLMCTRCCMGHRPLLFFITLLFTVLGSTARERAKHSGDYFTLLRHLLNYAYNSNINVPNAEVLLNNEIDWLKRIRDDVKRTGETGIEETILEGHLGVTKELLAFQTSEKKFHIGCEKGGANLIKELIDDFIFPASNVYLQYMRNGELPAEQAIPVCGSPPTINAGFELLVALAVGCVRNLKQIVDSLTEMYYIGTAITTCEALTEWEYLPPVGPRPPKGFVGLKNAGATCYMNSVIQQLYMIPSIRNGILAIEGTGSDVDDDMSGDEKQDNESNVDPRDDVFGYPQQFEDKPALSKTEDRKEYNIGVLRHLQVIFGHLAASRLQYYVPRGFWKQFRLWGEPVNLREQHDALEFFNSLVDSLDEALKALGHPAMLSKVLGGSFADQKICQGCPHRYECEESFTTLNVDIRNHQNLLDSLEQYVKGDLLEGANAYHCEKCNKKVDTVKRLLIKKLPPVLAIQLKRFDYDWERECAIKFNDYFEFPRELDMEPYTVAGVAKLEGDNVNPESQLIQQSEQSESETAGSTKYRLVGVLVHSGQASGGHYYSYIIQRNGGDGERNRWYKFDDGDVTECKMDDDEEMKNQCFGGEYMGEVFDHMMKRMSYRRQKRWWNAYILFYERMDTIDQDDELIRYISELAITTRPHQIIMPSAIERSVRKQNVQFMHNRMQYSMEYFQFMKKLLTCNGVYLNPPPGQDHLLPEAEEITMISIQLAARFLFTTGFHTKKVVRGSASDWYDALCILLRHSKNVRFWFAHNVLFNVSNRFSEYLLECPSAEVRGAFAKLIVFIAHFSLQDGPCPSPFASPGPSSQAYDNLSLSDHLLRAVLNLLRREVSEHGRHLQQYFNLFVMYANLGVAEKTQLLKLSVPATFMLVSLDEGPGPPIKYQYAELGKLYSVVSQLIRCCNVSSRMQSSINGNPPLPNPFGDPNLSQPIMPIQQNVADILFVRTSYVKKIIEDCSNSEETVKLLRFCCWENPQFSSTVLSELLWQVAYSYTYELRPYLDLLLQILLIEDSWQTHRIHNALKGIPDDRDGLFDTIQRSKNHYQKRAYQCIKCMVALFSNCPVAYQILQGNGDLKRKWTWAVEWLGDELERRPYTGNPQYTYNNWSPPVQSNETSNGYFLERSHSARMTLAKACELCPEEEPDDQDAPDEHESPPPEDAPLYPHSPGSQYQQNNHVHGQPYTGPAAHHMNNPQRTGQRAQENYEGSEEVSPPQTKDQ
Protocol: • 1). A 1× analysis buffer was formulated, consisting of a modified Tris buffer (pH 7.5). • 2). Compound solutions of different concentrations were formulated with final concentrations of 3,000/1,000/300/100/30/10/3/1 nM (containing 1% DMSO), and added into a 384-well plate. • 3). A USP9X enzyme solution was formulated with the 1× analysis buffer. • 4). 10 μL of the USP9X enzyme solution was added into the 384-well plate, and incubated with the compounds at room temperature for 1 h. • 5). Rhodamine 110 Protein was added into the 1× analysis buffer to formulate a substrate working solution. • 6). 10 μL of the substrate solution was added into each reaction well, centrifuged for 30 s, and mixed uniformly for 30 s. • 7). The 384-well plate was placed on a microplate reader for detection, with an excitation wavelength of 480 nm and an emission wavelength of 540 nm. Test was conducted for 30 minutes and the data was collected. • 8. Fitting the dose-effect curve.
as §1, with “inhibition” for “activation”, “log(inhibitor)” for “log(agonist)”, “IC50” for “AC50”, “USP9X” for “PKR”

Sequence of recombinant human PKR enzyme (P30613 whole entry): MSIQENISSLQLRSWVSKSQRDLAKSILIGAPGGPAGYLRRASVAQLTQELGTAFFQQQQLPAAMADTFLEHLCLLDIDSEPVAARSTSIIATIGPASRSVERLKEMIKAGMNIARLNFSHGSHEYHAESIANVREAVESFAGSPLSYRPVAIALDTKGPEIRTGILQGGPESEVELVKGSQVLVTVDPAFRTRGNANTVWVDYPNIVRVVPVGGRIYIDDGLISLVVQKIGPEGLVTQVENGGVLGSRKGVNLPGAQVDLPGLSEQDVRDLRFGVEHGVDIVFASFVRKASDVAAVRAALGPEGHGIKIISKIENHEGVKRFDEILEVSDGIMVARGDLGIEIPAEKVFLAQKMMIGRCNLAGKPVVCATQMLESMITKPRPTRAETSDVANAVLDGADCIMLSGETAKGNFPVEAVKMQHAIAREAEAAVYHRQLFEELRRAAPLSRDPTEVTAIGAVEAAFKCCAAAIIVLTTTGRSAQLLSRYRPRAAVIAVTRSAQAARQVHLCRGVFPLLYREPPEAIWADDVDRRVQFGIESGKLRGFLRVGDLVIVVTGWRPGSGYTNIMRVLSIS

O=C([C@H](CO)c1ccccc1)N1CC(=C2CN(S(=O)(=O)c3cnc4c(c3)OCCO4)C2)C1 [Compound 1, (S)-1-(1′-((2,3-dihydro-[1,4]dioxino[2,3-b]pyridin-7-yl)sulfonyl)-1′,4′-dihydro-2H,2′H-[3,3′-diazetidinylidene]-1(4H)-yl)-3-hydroxy-2-phenylpropan-1-one]
AC50 [1]: 300 to 1000 nM
IC50 [2]: < 100 nM

O=C([C@H](CO)c1ccccc1)N1CC(=C2CN(S(=O)(=O)c3ccc4c(c3)OCCO4)C2)C1 [Compound 2, (S)-1-(1′-((2,3-dihydrobenzo[b][1,4]dioxin-6-yl)sulfonyl)-1′,4′-dihydro-2H,2′H-[3,3′-diazetidinylidene]-1(4H)-yl)-3-hydroxy-2-phenylpropan-1-one]
AC50 [1]: < 100 nM
IC50 [2]: < 100 nM

O=C([C@H](CO)c1ccccc1)N1CC(=C2CN(S(=O)(=O)c3ccc4ncsc4c3)C2)C1 [Compound 3, (S)-1-(1′-(benzo[d]thiazol-6-ylsulfonyl)-1′,4′-dihydro-2H,2′H-[3,3′-diazetidinylidene]-1(4H)-yl)-3-hydroxy-2-phenylpropan-1-one]
AC50 [1]: < 100 nM
IC50 [2]: 300 to 1000 nM

O=C([C@H](CO)c1ccccc1)N1CC(=C2CN(S(=O)(=O)c3ccccn3)C2)C1 [Compound 4, (S)-3-hydroxy-2-phenyl-1-(1′-(pyridin-2-ylsulfonyl)-1′,4′-dihydro-2H,2′H-[3.3′-diazetidinylidene]-1(4H)-yl)propan-1-one]
AC50 [1]: 101 to 300 nM
IC50 [2]: 101 to 300 nM

COc1ccc(S(=O)(=O)N2CC(=C3CN(C(=O)[C@H](CO)c4ccccc4)C3)C2)cc1 [Compound 5, (S)-3-hydroxy-1-(1′-((4-methoxyphenyl)sulfonyl)-1′,4′-dihydro-2H,2′H-[3,3′-diazetidinylidene]-1(4H)-yl)-2-phenylpropan-1-one]
AC50 [1]: < 100 nM
IC50 [2]: < 100 nM

O=C(C(CO)c1ccccc1)N1CC(=C2CN(S(=O)(=O)c3ccc(OC(F)F)cc3)C2)C1 (stereo not drawn) [Compound 6, 1-(1′-((4-(difluoromethoxy)phenyl)sulfonyl)-1′,4′-dihydro-2H,2′H-[3,3′-diazetidinylidene]-1(4H)-yl)-3-hydroxy-2-phenylpropan-1-one]
IC50 [2]: 101 to 300 nM

O=C([C@@H](CO)c1ccc(F)c(Cl)c1)N1CC(=C2CN(S(=O)(=O)c3ccccn3)C2)C1 [Compound 76, (R)-2-(3-chloro-4-fluorophenyl)-3-hydroxy-1-(1′-(pyridin-2-ylsulfonyl)-1′,4′-dihydro-2H,2′H-[3,3′-diazetidinylidene]-1(4H)-yl)propan-1-one]
AC50 [1]: 300 to 1000 nM

O=C([C@H](CO)c1ccc(F)c(Cl)c1)N1CC(=C2CN(S(=O)(=O)c3ccccn3)C2)C1 [Compound 77, (S)-2-(3-chloro-4-fluorophenyl)-3-hydroxy-1-(1′-(pyridin-2-ylsulfonyl)-1′,4′-dihydro-2H,2′H-[3,3′-diazetidinylidene]-1(4H)-yl)propan-1-one]
AC50 [1]: < 100 nM

O=C([C@H](CO)c1ccccc1)N1CC(=C2CN(S(=O)(=O)c3ccc(OC(F)F)cn3)C2)C1 [Compound 80, (S)-1-(1′-((5-(difluoromethoxy)pyridin-2-yl)sulfonyl)-1′,4′-dihydro-2H,2′H-[3,3′-diazetidinylidene]-1(4H)-yl)-3-hydroxy-2-phenylpropan-1-one]
AC50 [1]: < 100 nM

CC(C)Oc1ccc(S(=O)(=O)N2CC(=C3CN(C(=O)[C@H](CO)c4ccccc4)C3)C2)nc1 [Compound 81, (S)-3-hydroxy-1-(1′-((5-isopropoxypyridin-2-yl)sulfonyl)-1′,4′-dihydro-2H,2′H-[3,3′-diazetidinylidene]-1(4H)-yl)-2-phenylpropan-1-one]
AC50 [1]: 101 to 300 nM

O=C([C@H](CO)c1ccccc1)N1CC(=C2CN(S(=O)(=O)c3ccc(OC4CC4)cn3)C2)C1 [Compound 82, (S)-1-(1′-((5-cyclopropoxypyridin-2-yl)sulfonyl)-1′,4′-dihydro-2H,2′H-[3,3′-diazetidinylidene]-1(4H)-yl)-3-hydroxy-2-phenylpropan-1-one]
AC50 [1]: < 100 nM

O=C([C@H](CO)c1ccc(F)cc1F)N1CC(=C2CN(S(=O)(=O)c3ccccn3)C2)C1 [Compound 83, (S)-2-(2,4-difluorophenyl)-3-hydroxy-1-(1′-(pyridin-2-ylsulfonyl)-1′,4′-dihydro-2H,2′H-[3,3′-diazetidinylidene]-1(4H)-yl)propan-1-one]
AC50 [1]: < 100 nM

O=C([C@@H](CO)c1ccc(F)cc1F)N1CC(=C2CN(S(=O)(=O)c3ccccn3)C2)C1 [Compound 84, (R)-2-(2,4-difluorophenyl)-3-hydroxy-1-(1′-(pyridin-2-ylsulfonyl)-1′,4′-dihydro-2H,2′H-[3,3′-diazetidinylidene]-1(4H)-yl)propan-1-one]
AC50 [1]: 300 to 1000 nM

N#Cc1ccc(C(CO)C(=O)N2CC(=C3CN(S(=O)(=O)c4ccccn4)C3)C2)cc1 (stereo not drawn) [Compound 85, 4-(3-hydroxy-1-oxo-1-(1′-(pyridin-2-ylsulfonyl)-1′,4′-dihydro-2H,2′H-[3,3′-diazetidinylidene]-1(4H)-yl)propan-2-yl)benzonitrile]
AC50 [1]: 300 to 1000 nM

O=C(C(CO)c1cc(F)cc(Cl)c1)N1CC(=C2CN(S(=O)(=O)c3ccccn3)C2)C1 (stereo not drawn) [Compound 86, 2-(3-chloro-5-fluorophenyl)-3-hydroxy-1-(1′-(pyridin-2-ylsulfonyl)-1′,4′-dihydro-2H,2′H-[3,3′-diazetidinylidene]-1(4H)-yl)propan-1-one]
AC50 [1]: 300 to 1000 nM

COc1ccc(S(=O)(=O)N2CC(=C3CN(C(=O)[C@H](CO)c4ccc(F)cc4F)C3)C2)nc1 [Compound 87, (S)-2-(2,4-difluorophenyl)-3-hydroxy-1-(1′-((5-methoxypyridin-2-yl)sulfonyl)-1′,4′-dihydro-2H,2′H-[3,3′-diazetidinylidene]-1(4H)-yl)propan-1-one]
AC50 [1]: < 100 nM

COc1ccc(S(=O)(=O)N2CC(=C3CN(C(=O)[C@@H](CO)c4ccc(F)cc4F)C3)C2)nc1 [Compound 88, (R)-2-(2,4-difluorophenyl)-3-hydroxy-1-(1′-((5-methoxypyridin-2-yl)sulfonyl)-1′,4′-dihydro-2H,2′H-[3,3′-diazetidinylidene]-1(4H)-yl)propan-1-one]
AC50 [1]: 300 to 1000 nM

O=C(C(CO)C1CCCCC1)N1CC(=C2CN(S(=O)(=O)c3ccccn3)C2)C1 (stereo not drawn) [Compound 90, 2-cyclohexyl-3-hydroxy-1-(1′-(pyridin-2-ylsulfonyl)-1′,4′-dihydro-2H,2′H-[3,3′-diazetidinylidene]-1(4H)-yl)propan-1-one]
AC50 [1]: 101 to 300 nM

[2H]C([2H])([2H])Oc1ccc(S(=O)(=O)N2CC(=C3CN(C(=O)[C@H](CO)c4ccccc4)C3)C2)nc1 [Compound 91, (S)-3-hydroxy-1-(1′-((5-(methoxy-d3)pyridin-2-yl)sulfonyl)-1′,4′-dihydro-2H,2′H-[3,3′-diazetidinylidene]-1(4H)-yl)-2-phenylpropan-1-one]
AC50 [1]: < 100 nM
